One assay deals with NLRP3 inflammasome. In words: IL-1β secretion assay in PMA-differentiated THP-1 cells, nigericin-activated (HTRF). The note with it: Homo sapiens, 15 μM nigericin, 3 hours, read-out: IL-1β IC50. Type of assay: cell-based. The method, then: 10 μL supernatant was removed, and IL-1p levels were monitored using an HTRF assay (CisBio, #621L1PEC) according to manufacturers' instructions. Viability and pyroptosis was monitored with the addition of PrestoBlue cell viability reagent (Life Technologies, #A13261) directly to the cell culture plate.
IC50 values were calculated from the plot of percentage of inhibition versus the inhibitor concentration by a logistics fit according to: y=A2+(A1−A2)/(1+(x/IC50)^p) where y is the %-inhibition at the inhibitor concentration, x. A1 is the lowest inhibition value, i.e. 0%, and A2 the maximum inhibition value, i.e. 100%. The exponent, p, is the Hill coefficient. The curve fitting was conducted with an internally developed software suite.
NLRP3-dependent IL-1β secretion was stimulated in PMA-differentiated THP-1 cells by the addition of nigericin, and cytokines were measured in the […] after 3 hours. As discussed above, activation of the NLRP3 inflammasome requires both an NF-kB-dependent priming step and the addition of a NLRP3 activator.
In general terms: Time-resolved FRET reads energy transfer from a long-lived donor to a nearby acceptor.

For assay [1], the system named is NF-kB-dependent TNF-α secretion. In words: TNF-α secretion assay in THP-1 cells (counter screen, HTRF). The class given is cell-based. To be noted: Homo sapiens, Pam3CSK4-stimulated, 3 hours. The method, then:
Monocytic THP-1 cells were maintained according to providers' instructions in RPMI media as described above. […] Experimental compounds were prepared and added as described above. TNF-α secretion was triggered by the addition of either 1 μg/mL LPS (Sigma, #L4391) or 100 ng/mL Pam3CSK4 (Invivogen, #tlrl-pms) depending on the experiment, and cells were incubated for 3 hours. 10 μL supernatant was removed, and TNF-α levels were monitored using an HTRF assay (CisBio, #62TNFPEC) according to manufacturers' instructions. Viability was monitored as described above.
IC50 values were calculated from the plot of percentage of inhibition versus the inhibitor concentration by a logistics fit according to: y=A2+(A1−A2)/(1+(x/IC50)^p) where y is the %-inhibition at the inhibitor concentration, x. A1 is the lowest inhibition value, i.e. 0%, and A2 the maximum inhibition value, i.e. 100%. The exponent, p, is the Hill coefficient. The curve fitting was conducted with an internally developed software suite. […]
Background: Counterscreens check selectivity or assay interference.

For `Cc1cc(N[C@H]2C[C@@](C)(O)C2)nnc1-c1ccc(Cl)cc1O` [Ex 68, 5-Chloro-2-(6-(((cis)-3-hydroxy-3-methylcyclobutyl)amino)-4-methylpyridazin-3-yl)phenol], the IC50 (usually the concentration at which inhibition is half-maximal) is 89.3 nM in the assay with NLRP3 inflammasome and more than 100000 nM in assay [1].

In the case of `CCN1CCC[C@H]1CNc1ccc(-c2c(C)cc(C(F)(F)F)cc2O)nn1` [Ex 8, (S)-2-(6-(((1-Ethylpyrrolidin-2-yl)methyl)amino)pyridazin-3-yl)-3-methyl-5-(trifluoromethyl)phenol], the IC50 in the assay on NLRP3 inflammasome is 24.1 nM; in assay [1], more than 100000 nM.

In the case of `Cc1cc(C(F)(F)F)cc(O)c1-c1ccc(NCC2(O)CCCC2)nn1` [Ex 98, 2-(6-(((1-Hydroxycyclopentyl)methyl)amino)pyridazin-3-yl)-3-methyl-5-(trifluoromethyl)phenol], the figures for the IC50 (with NLRP3 inflammasome; in assay [1]) were 115 nM and more than 100000 nM, respectively.

Turning to `Cc1cc(C(F)(F)F)cc(O)c1-c1ccc(NC[C@H](O)C(C)C)nn1` [Ex 90b, (R)-2-(6-((2-Hydroxy-3-methylbutyl)amino)pyridazin-3-yl)-3-methyl-5-(trifluoromethyl) phenol], the IC50 with NLRP3 inflammasome is 115 nM; in assay [1], more than 100000 nM.

In the case of `Cc1cc(C(F)(F)F)cc(O)c1-c1ccc(N[C@H]2CCCN3CCC[C@@H]23)nn1` [Ex 83b, 3-Methyl-2-(6-(((8S,8aS)-octahydroindolizin-8-yl)amino)pyridazin-3-yl)-5-(trifluoromethyl) phenol], the IC50 in the assay on NLRP3 inflammasome is 69.4 nM; in assay [1], more than 100000 nM.

As to `Cc1cc(C(F)(F)F)cc(O)c1-c1cc(C(F)(F)F)c(NCCO)nn1` [Ex 26, 2-(6-((2-Hydroxyethyl)amino)-5-(trifluoromethyl)pyridazin-3-yl)-3-methyl-5-(trifluoromethyl)phenol], the half-inhibitory concentration (IC50) in the assay on NLRP3 inflammasome is 165 nM; in assay [1], more than 100000 nM.

For the molecule `Cc1cc(-c2c(C)cc(C(F)(F)F)cc2O)nnc1N[C@H]1C[C@@](C)(O)C1` [Ex 54, 2-(6-(((cis)-3-Hydroxy-3-methylcyclobutyl)amino)-5-methylpyridazin-3-yl)-3-methyl-5-(trifluoromethyl)phenol], the IC50 in the assay with NLRP3 inflammasome amounted to 11.8 nM; in assay [1] it was 35000 nM.

In the case of `Cc1cc(C(F)(F)F)cc(O)c1-c1ccc(N[C@H]2C[C@](O)(C(F)(F)F)C2)nn1` [Ex 67, 2-(6-(((cis)-3-Hydroxy-3-(trifluoromethyl)cyclobutyl)amino)pyridazin-3-yl)-3-methyl-5-(trifluoromethyl)phenol], the IC50 with NLRP3 inflammasome was 40.1 nM; in assay [1], 46000 nM.

As for `OCCNc1ccc(-c2c(O)cc(C(F)(F)F)cc2Cl)nn1` [Ex 37, 3-Chloro-2-(6-((2-hydroxyethyl)amino)pyridazin-3-yl)-5-(trifluoromethyl)phenol], the IC50 in the assay on NLRP3 inflammasome was 381 nM; in assay [1] it was more than 100000 nM.

Turning to `Oc1cc(C(F)(F)F)cc(Cl)c1-c1ccc(N[C@H]2C[C@H](O)C2)nn1` [Ex 32, 3-Chloro-2-(6-((trans-3-hydroxycyclobutyl)amino)pyridazin-3-yl)-5-(trifluoromethyl)phenol], the IC50 stood at 218 nM in the assay with NLRP3 inflammasome and 85000 nM in assay [1].

Regarding `Cc1cc(C(F)(F)F)cc(O)c1-c1ccc(N[C@H]2CCC[C@H](O)C2)nn1` [Ex 57, 2-(6-(((1S,3S)-3-Hydroxycyclohexyl)amino)pyridazin-3-yl)-3-methyl-5-(trifluoromethyl)phenol], the IC50 came to 224 nM in the assay on NLRP3 inflammasome and 84000 nM in assay [1].

Regarding `Cc1cc(C(F)(F)F)cc(O)c1-c1ccc(N[C@@H]2CCC(=O)NC2)nn1` [Ex 61, (R)-5-((6-(2-Hydroxy-6-methyl-4-(trifluoromethyl)phenyl)pyridazin-3-yl)amino)piperidin-2-one], the IC50 with NLRP3 inflammasome was 65.8 nM; in assay [1], more than 100000 nM.

With `Cc1cc(-c2c(C)cc(C(F)(F)F)cc2O)nnc1NC1CCC(=O)N(C)C1` (centres unmarked) [Ex 99, 5-((6-(2-Hydroxy-6-methyl-4-(trifluoromethyl)phenyl)-4-methylpyridazin-3-yl)amino)-1-methylpiperidin-2-one], the results for the IC50 (in the assay on NLRP3 inflammasome; in assay [1]) were 75 nM and more than 100000 nM, respectively.

(Values after patent US11208399B2, “NLRP3 inflammasome inhibitors” (Novartis AG, priority 2019, dated 2021).)
